The results in this text go back to patent US20210161189A1, “MONOESTER SUGAR DERIVATIVES AS FLAVOR MODIFIERS” (Firmenich SA, priority 2018, published 2021).

The test system of this experiment is sensory panel. The experiment in a line: Taste modifier properties in model systems (sensory panel of 15 persons, with/without noseclip). The experiment is classed as in vivo, human. The following applies: 100 ppm. As to the method: The sensory properties of various compositions comprising a monoester derivative of glucose were tested in various model systems, outlined in Table 14 below. [table] FIGS. 12 to 18 report the sweetness modifier properties of each of the following compounds (tested at 100 ppm in the various mode systems described above): glucose-6-O-octanoate, glucose-6-O-acetate, glucose-6-O-hexanoate, glucose-6-O-decanoate, glucose-6-O-hexadecanoate, glucose-6-O-oleate and glucose-6-O-oleyl derivative. The sensory properties were evaluated by a sensory panel consisting of15 persons, where the properties were evaluated with the subjects wearing a noseclip (With NC), and without a noseclip (Without NC). The subjects evaluate the perceived intensities of different sensory attributes on a linear scale (“0” note intense to “10” very intense) for the corresponding model mixtures without and with the compound at 100ppm. The differences of perceived intensities between the model mixtures with and without the compound are represented for each attribute. A statistical data treatment (unilateral paired student test) is achieved on each attribute to conclude on a significant or not significant taste modulation effect of the compound.

Setting [1] is: SG95-sour model system, with and without nose clip, significance 95%.
The mark [2] stands for this setting: SG95, with nose clip, significance 95%.

Regarding `CC(=O)OC[C@@H](O)[C@@H](O)[C@H](O)[C@@H](O)C=O` [glucose-6-O-acetate], under “SG95”, the “Licorice taste modulation effect” value is “slight masking effects” and the “Sweet lingering modulation effect” value is listed as “slight masking effects”. The Bitterness modulation effect entry (model system not stated) is “slight bitterness masking effet”. In addition, the “Sweet taste modulation effect” value (sucrose model mixture) is “slights enhancing sweetness effects”. Further, the “Taste modulation effects overall” value (tasted model systems) is on record as “no significant modulation effects”.

As for `CCCCCCCCCC(=O)OC[C@@H](O)[C@@H](O)[C@H](O)[C@@H](O)C=O` [glucose-6-O-decanoate], the “Licorice taste modulation effect” value (SG95-sour model system, without nose clip, significance 95%) was “significant licorice taste masking effect”. For the same compound, the Taste modulation effects result (all the other model systems) is given as “no significant effects”.

Turning to `CCCCCCCCCCCCCCCC(=O)OC[C@@H](O)[C@@H](O)[C@H](O)[C@@H](O)C=O` [glucose-6-O-hexadecanoate], where the note is “SG95/sour model system, without nose clip, significance 95%”, the “Sweet taste modulation effect” value is “significant sweet masking effect”. In addition, the “Round/thick/mouth coating modulation effect” value (grapefruit beverage, significance 95%) is “significant round/thick/mouth coating enhancing effect”. For the same compound, the “Bitter taste modulation effect” value (with nose clip, significance 95%) was “significant bitter enhancing effect”.

As for `CCCCCC(=O)OC[C@@H](O)[C@@H](O)[C@H](O)[C@@H](O)C=O` [glucose-6-O-hexanoate], under setting [1], the “Licorice taste modulation effect” value is “significant licorice taste masking effect” and the “Sour taste modulation effect” value is reported as “significant sour enhancing effect”. For the same compound, under setting [2], the “Sweet lingering modulation effect” value was “significant sweet and sweet lingering masking effects”; the “Sweet taste modulation effect” value was “significant sweet and sweet lingering masking effects”. In addition, for the setting “sweet and sour model system, with and without nose clip, significance 95%”, the “Sweet taste modulation effect” value is “significant sweet enhancing effect”.

For the compound `CCCCCCCC/C=C\CCCCCCCC(=O)OC[C@@H](O)[C@@H](O)[C@H](O)[C@@H](O)C=O` [glucose-6-O-oleate], the “Licorice taste modulation effect” value reads like this: under setting [1], “significant licorice taste masking effect”; (SG95 model system, with and without nose clip, at least 95%) “significant licorice taste masking effect”. In addition, the “Bitter taste modulation effect” value (without nose clip, significance 95%) is reported as “significant bitter enhancing effect”. For the same compound, the “Sweet lingering modulation effect” value (without nose clip, significance 95%, model system not stated) is listed as “significant sweet lingering masking effect”.

As to glucose-6-O-oleyl derivative, under setting [2], the “Sweet lingering modulation effect” value is recorded as “significant sweet lingering masking effect”. For the same compound, for the setting “beverage grapefruit, significance 95%”, the “Flavor intensity modulation effect” value is “significant flavor intensity masking effect”.
